In patent US20190225650A1, “PEPTIDOMIMETIC MACROCYCLES AND USE THEREOF IN REGULATING HIF1ALPHA” (AILERON THERAPEUTICS, INC., priority 2013, published 2019):
Bridge positions count the residues as written; N and C are the ends. Square brackets hold non-standard residues; d marks the D form. Peptide text beside a SMILES is read from it. S5 = C=CCCC[C@](C)(N)C(=O)O; Nle = CCCC[C@H](N)C(=O)O

Assays:
HRE-bla ME-180 cells [1] = assay: Reporter gene assay (HRE-bla ME-180 HIF reporter, GeneBLAzer); assay type: cell-based, human; conditions: for EC50: 24 hour normoxia
In short: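 A FRET β-lactamase readout of HIF transcription was used. After compound treatment in 0.3% DMSO/media under normoxic conditions, 20 μl of 6× LiveBLAzer-FRET B/G (CCF4-AM) substrate was added. Plates sat 3 hr at room temperature in the dark and were read at 409 Ex/460Em and 409Ex/530Em on a Synergy 2. Inhibition was compared against DMSO vehicle controls, with chetomin as positive control.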

[2] = target: T1, flag-tagged HIF1α (AA 786-826) / His6-tagged p300 (AA 323-423) complex (Homo sapiens, UniProt Q09472); assay: HIF1α p300 displacement assay (TR FRET, +CHAPS); assay type: binding; conditions: read-out: IC50 (nM) (HIF1α_p300 Displacement + CHAPS)
T1 construct: His6-tagged p300 (AA 323-423); made in house; host or cells: E. coli (pETDuet vector)
T1 sequence (Q09472 323-423, one chain of several): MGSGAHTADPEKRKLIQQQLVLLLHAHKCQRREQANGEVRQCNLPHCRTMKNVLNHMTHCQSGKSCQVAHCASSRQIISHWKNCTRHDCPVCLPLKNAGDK
In short: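 In this TR-FRET displacement format, peptides compete HIF1α C-terminal transactivation domain off p300-CH. They were preincubated 1 h at room temperature with 300 nM complex in HEPES pH 7.4/NaCl buffer with 7.5 mM CHAPS and 1 mM DTT. Anti-His-D2 (4 nM) and anti-Flag-K (0.5 μM) followed for 2 h, and a one-site fit of the fluorescence ratio gave IC50.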

HRE-bla ME-180 cells [3] = assay: Cell proliferation assay (viability, MTT, 1% FBS); assay type: cell-based, human
In short: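 Viable cell number was measured with the CellTiter 96 (MTT) kit after compounds were applied for a 16 h normoxic (21% O2) pretreatment, followed by further normoxic or hypoxic (1% O2) culture. Cells: 2×10^4 ME-180 per well, Opti-MEM + 1% FBS, 0.5% DMSO vehicle.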

For `CCCC[C@H](NC(=O)[C@H](Cc1ccccc1)NC(=O)[C@@H](NC(=O)[C@H](C)NC(=O)[C@H](CCC(N)=O)NC(=O)[C@H](CC(=O)O)NC(=O)[C@@H](NC(=O)[C@H](Cc1ccccc1)NC(C)=O)[C@@H](C)CC)C(C)C)C(=O)N[C@@]1(C)CCCC=CCCC[C@@](C)(C(=O)N[C@@H](CCCC)C(=O)N[C@@H](C)C(=O)N[C@@H](CC(C)C)C(=O)N[C@@H](CC(C)C)C(N)=O)NC(=O)[C@H]([C@@H](C)CC)NC(=O)[C@H](C(C)C)NC(=O)[C@H](CO)NC1=O` [SP-252] (Ac-FIDQAVF[Nle][S5]SVI[S5][Nle]ALL-NH2; staple 9-13), the “18 h Avg % max inhibition at top conc (HIF Rptr-24 hrs normoxia) (μM)” value (“18 h Avg % max inhibition at top conc” below) (HRE-bla ME-180 cells [1]) was “++++ (≥50: ++++)”, the EC50 (HRE-bla ME-180 cells [1]) was ≤ 5 µM and the IC50 [2] was > 700 nM. The “Viability 1% FBS AVG (MTT V3-24 hr Normoxia) (μM)” value (shortened to “Viability 1% FBS AVG”) (HRE-bla ME-180 cells [3]) was “++ (≤5 but <15: ++)”.

With `CC[C@H](C)[C@H](NC(=O)[C@H](Cc1ccccc1)NC(C)=O)C(=O)N[C@@H](CC(N)=O)C(=O)N[C@@H](CCC(=O)O)C(=O)N[C@@H](CCCCN)C(=O)N[C@H](C(=O)N[C@@H](CC(C)C)C(=O)N[C@@H](CCSC)C(=O)N[C@@]1(C)CCCC=CCCC[C@@](C)(C(=O)N[C@@H](CCSC)C(=O)N[C@@H](C)C(=O)N[C@@H](CC(C)C)C(=O)N[C@@H](CO)C(=O)N[C@@H](CCCNC(=N)N)C(N)=O)NC(=O)[C@H]([C@@H](C)CC)NC(=O)[C@H](C(C)C)NC(=O)[C@H](CC(C)C)NC1=O)C(C)C` [SP-288] (Ac-FINEKVLM[S5]LVI[S5]MALSR-NH2; staple 9-13) the “18 h Avg % max inhibition at top conc” value (HRE-bla ME-180 cells [1]) was “+ (<10: +)”, the EC50 (HRE-bla ME-180 cells [1]) was > 30 µM and the IC50 [2] was > 700 nM. The “Viability 1% FBS AVG” value (HRE-bla ME-180 cells [3]) was “++++ (≥30: ++++)”.

In the case of `CCCC[C@H](NC(=O)[C@H](Cc1ccccc1)NC(=O)[C@@H](NC(=O)[C@H](CCC(=O)O)NC(=O)[C@H](CCC(N)=O)NC(=O)[C@H](CC(=O)O)NC(=O)[C@@H](NC(=O)[C@H](Cc1ccccc1)NC(C)=O)[C@@H](C)CC)C(C)C)C(=O)N[C@@]1(C)CCCC=CCCC[C@@](C)(C(=O)N[C@@H](CCCC)C(=O)N[C@@H](C)C(=O)N[C@@H](CC(C)C)C(=O)N[C@@H](CC(=O)O)C(=O)N[C@@H](CCCNC(=N)N)C(=O)N[C@H](C(N)=O)[C@@H](C)CC)NC(=O)[C@H]([C@@H](C)CC)NC(=O)[C@H](C(C)C)NC(=O)[C@H](CC(C)C)NC1=O` [SP-269] (Ac-FIDQEVF[Nle][S5]LVI[S5][Nle]ALDRI-NH2; staple 9-13), the “18 h Avg % max inhibition at top conc” value (HRE-bla ME-180 cells [1]) is reported as “+++ (≤25 but <50: +++)”, the EC50 (HRE-bla ME-180 cells [1]) is reported as 15 to 30 µM and the IC50 [2] is reported as 400 to 700 nM. The “Viability 1% FBS AVG” value (HRE-bla ME-180 cells [3]) was “++++ (≥30: ++++)”.

With `CC[C@H](C)[C@H](NC(=O)[C@H](CCCNC(=N)N)NC(=O)[C@H](CC(=O)O)NC(=O)[C@H](CC(C)C)NC(=O)[C@H](C)NC(=O)[C@H](CCSC)NC(=O)[C@]1(C)CCCC=CCCC[C@](C)(NC(=O)[C@H](CCSC)NC(=O)[C@H](CC(C)C)NC(=O)[C@@H](NC(=O)[C@H](Cc2c[nH]cn2)NC(=O)[C@H](CCC(=O)O)NC(=O)[C@H](CC(=O)O)NC(=O)[C@@H](NC(=O)[C@H](Cc2ccccc2)NC(C)=O)[C@@H](C)CC)C(C)C)C(=O)N[C@@H](CC(C)C)C(=O)N[C@@H](C(C)C)C(=O)N[C@@H]([C@@H](C)CC)C(=O)N1)C(N)=O` [SP-284] (Ac-FIDEHVLM[S5]LVI[S5]MALDRI-NH2; staple 9-13) the “18 h Avg % max inhibition at top conc” value (HRE-bla ME-180 cells [1]) was “+++ (≤25 but <50: +++)”, the EC50 (HRE-bla ME-180 cells [1]) was 5 to 15 µM and the IC50 [2] was 400 to 700 nM. For the same compound, the “Viability 1% FBS AVG” value (HRE-bla ME-180 cells [3]) was “++++ (≥30: ++++)”.

`CCCC[C@H](NC(=O)[C@H](Cc1ccccc1)NC(=O)[C@@H](NC(=O)[C@H](C)NC(=O)[C@H](CCC(N)=O)NC(=O)[C@H](CC(=O)O)NC(=O)[C@@H](NC(=O)[C@H](Cc1ccccc1)NC(C)=O)[C@@H](C)CC)C(C)C)C(=O)N[C@@]1(C)CCCC=CCCC[C@@](C)(C(=O)N[C@@H](Cc2c[nH]cn2)C(=O)N[C@@H](C)C(=O)N[C@@H](CC(C)C)C(=O)N[C@@H](CC(C)C)C(N)=O)NC(=O)[C@H]([C@@H](C)CC)NC(=O)[C@H](C(C)C)NC(=O)[C@H](CC(N)=O)NC1=O` [SP-259] (Ac-FIDQAVF[Nle][S5]NVI[S5]HALL-NH2; staple 9-13) was tested, and the “18 h Avg % max inhibition at top conc” value (HRE-bla ME-180 cells [1]) was “++++ (≥50: ++++)”, the EC50 (HRE-bla ME-180 cells [1]) was ≤ 5 µM and the IC50 [2] was > 700 nM. The “Viability 1% FBS AVG” value (HRE-bla ME-180 cells [3]) was “+ (<5: +)”.
